± gives the uncertainty stated by the source.
Assay: xn = mol fraction of the nth substance listed

CC[N+](C)(CC)CCOC.O=S(=O)([N-]S(=O)(=O)C(F)(F)F)C(F)(F)F + O=C1CCCO1
101 kPa
Details | electrical conductivity [S/m] | viscosity [mPa·s]
288.15 K, x1 = 0.1004 | 1.07 ± 0.011 | 5.77 ± 0.12
288.15 K, x1 = 0.2006 | 1.05 ± 0.011 | 8.69 ± 0.18
288.15 K, x1 = 0.4998 | 0.504 ± 0.01 | 39.28 ± 0.84
288.15 K, x1 = 0.6002 | 0.42 ± 0.01 | 63.7 ± 1.4
293.15 K, x1 = 0.1004 | 1.18 ± 0.012 | 4.642 ± 0.099
293.15 K, x1 = 0.3003 | 0.925 ± 0.01 | 12.34 ± 0.26
293.15 K, x1 = 0.4998 | 0.589 ± 0.01 | 30.79 ± 0.66
293.15 K, x1 = 1 | 0.184 ± 0.01 | 162.2 ± 6.7
298.15 K, x1 = 0.1004 | 1.305 ± 0.013 | 3.697 ± 0.079
298.15 K, x1 = 0.4007 | 0.841 ± 0.01 | 15.12 ± 0.32
303.15 K, x1 = 0.6999 | 0.592 ± 0.01 | 39.92 ± 0.85
303.15 K, x1 = 1 | 0.301 ± 0.01 | 89.7 ± 2.4
308.15 K, x1 = 0.3003 | 1.28 ± 0.013 | 7.61 ± 0.16
308.15 K, x1 = 0.4007 | 1.08 ± 0.011 | 10.57 ± 0.23
308.15 K, x1 = 0.4998 | 0.904 ± 0.01 | 15.55 ± 0.33
308.15 K, x1 = 0.9003 | 0.463 ± 0.01 | 51.6 ± 1
313.15 K, x1 = 0.1004 | 1.644 ± 0.016 | 1.923 ± 0.041
313.15 K, x1 = 0.2006 | 1.76 ± 0.018 | 3.958 ± 0.084
313.15 K, x1 = 0.8001 | 0.676 ± 0.01 | 30.48 ± 0.65
318.15 K, x1 = 0.6002 | 1.021 ± 0.01 | 14.49 ± 0.31
323.15 K, x1 = 0.2006 | 2.07 ± 0.021 | 2.954 ± 0.063
323.15 K, x1 = 0.4007 | 1.5 ± 0.015 | 6.43 ± 0.14
323.15 K, x1 = 0.4998 | 1.29 ± 0.013 | 8.64 ± 0.18
323.15 K, x1 = 0.6002 | 1.145 ± 0.011 | 11.6 ± 0.3
328.15 K, x1 = 0.6002 | 1.28 ± 0.013 | 9.45 ± 0.2
328.15 K, x1 = 1 | 0.706 ± 0.01 | 26.35 ± 0.56
333.15 K, x1 = 0.4007 | 1.812 ± 0.018 | 4.73 ± 0.1
333.15 K, x1 = 1 | 0.816 ± 0.01 | 21.31 ± 0.45
343.15 K, x1 = 0.3003 | 2.44 ± 0.024 | 2.72 ± 0.058
343.15 K, x1 = 0.4998 | 1.926 ± 0.019 | 4.472 ± 0.095
348.15 K, x1 = 0.4007 | 2.346 ± 0.023 | 3.095 ± 0.066
348.15 K, x1 = 0.6999 | 1.68 ± 0.017 | 5.09 ± 0.11
348.15 K, x1 = 0.9003 | 1.328 ± 0.013 | 9.11 ± 0.19
353.15 K, x1 = 0.2006 | 3.09 ± 0.031 | 1.361 ± 0.029
353.15 K, x1 = 0.3003 | 2.85 ± 0.029 | 2.11 ± 0.045
353.15 K, x1 = 0.6002 | 2.05 ± 0.02 | 3.425 ± 0.073
353.15 K, x1 = 0.9003 | 1.46 ± 0.015 | 7.16 ± 0.15

CCCCCCCCn1cc[n+](C)c1.F[B-](F)(F)F + CC1COC(=O)O1
Details | viscosity [mPa·s]
303.15 K, 99.7 kPa, x2 = 0.4086 | 38.9 ± 5.5

CCCC[n+]1ccn(C)c1.O=S(=O)([O-])C(F)(F)F + CS(C)=O + OCCO
viscosity [mPa·s], 100 kPa
Details | 298.15 K | 303.15 K | 308.15 K | 313.15 K | 318.15 K | 323.15 K
x1 = 0.0301, x2 = 0.903 | 3.07 ± 0.31 | 2.75 ± 0.28 | 2.47 ± 0.25 | 2.25 ± 0.23 | 2.04 ± 0.21 | 1.86 ± 0.19
x1 = 0.0698, x2 = 0.8409 | 3.41 ± 0.34 | 3.16 ± 0.32 | 2.83 ± 0.29 | 2.56 ± 0.26 | 2.32 ± 0.23 | 2.12 ± 0.21
x1 = 0.1006, x2 = 0.7931 | 4.04 ± 0.53 | 3.69 ± 0.45 | 3.29 ± 0.38 | 2.96 ± 0.34 | 2.67 ± 0.3 | 2.43 ± 0.28
x1 = 0.1311, x2 = 0.7537 | 5.33 ± 0.54 | 4.67 ± 0.47 | 4.14 ± 0.42 | 3.69 ± 0.37 | 3.31 ± 0.33 | 3 ± 0.3
x1 = 0.1702, x2 = 0.7004 | 6.5 ± 1.8 | 5.61 ± 0.99 | 4.93 ± 0.91 | 4.37 ± 0.78 | 3.9 ± 0.67 | 3.51 ± 0.69
x1 = 0.2067, x2 = 0.6494 | 8.13 ± 0.84 | 6.91 ± 0.71 | 6.04 ± 0.61 | 5.31 ± 0.54 | 4.71 ± 0.48 | 4.21 ± 0.42
x1 = 0.2329, x2 = 0.603 | 9 ± 1 | 7.8 ± 0.8 | 6.78 ± 0.7 | 5.95 ± 0.61 | 5.26 ± 0.54 | 4.68 ± 0.49
x1 = 0.2768, x2 = 0.5373 | 11.8 ± 1.2 | 9.8 ± 1.1 | 8.47 ± 0.88 | 7.38 ± 0.76 | 6.48 ± 0.67 | 5.74 ± 0.58
x1 = 0.3089, x2 = 0.4851 | 13.6 ± 1.4 | 11.2 ± 1.1 | 9.67 ± 0.97 | 8.39 ± 0.84 | 7.35 ± 0.74 | 6.48 ± 0.65
x1 = 0.3348, x2 = 0.4441 | 15.1 ± 1.5 | 12.1 ± 1.2 | 10.4 ± 1 | 8.97 ± 0.91 | 7.83 ± 0.79 | 6.89 ± 0.7
x1 = 0.3723, x2 = 0.3876 | 17.3 ± 1.7 | 14.2 ± 1.4 | 12.2 ± 1.2 | 10.5 ± 1.1 | 9.13 ± 0.92 | 8 ± 0.81
x1 = 0.4022, x2 = 0.3357 | 19 ± 1.9 | 15.7 ± 1.6 | 13.4 ± 1.3 | 11.5 ± 1.2 | 10 ± 1 | 8.73 ± 0.88
x1 = 0.4355, x2 = 0.2923 | 21.3 ± 2.1 | 17.9 ± 1.8 | 15.1 ± 1.5 | 13 ± 1.3 | 11.2 ± 1.1 | 9.82 ± 0.99
x1 = 0.473, x2 = 0.2581 | 23.3 ± 2.3 | 19.3 ± 1.9 | 16.3 ± 1.6 | 14 ± 1.4 | 12.1 ± 1.2 | 10.5 ± 1.1
x1 = 0.5076, x2 = 0.2336 | 25.5 ± 2.6 | 21.2 ± 2.2 | 17.9 ± 1.8 | 15.2 ± 1.5 | 13.1 ± 1.3 | 11.4 ± 1.1
x1 = 0.5442, x2 = 0.2004 | 27.9 ± 2.8 | 23.2 ± 2.3 | 19.6 ± 2 | 16.6 ± 1.7 | 14.3 ± 1.4 | 12.4 ± 1.3
x1 = 0.5775, x2 = 0.1858 | 30.3 ± 3.1 | 25.2 ± 2.5 | 21.2 ± 2.1 | 18 ± 1.8 | 15.4 ± 1.5 | 13.4 ± 1.3
x1 = 0.6051, x2 = 0.18 | 32.5 ± 3.3 | 26.9 ± 2.7 | 22.6 ± 2.3 | 19.2 ± 1.9 | 16.4 ± 1.6 | 14.2 ± 1.4
x1 = 0.6226, x2 = 0.1647 | 33.8 ± 3.4 | 27.8 ± 2.8 | 23.3 ± 2.3 | 19.7 ± 2 | 16.9 ± 1.7 | 14.6 ± 1.5
x1 = 0.6651, x2 = 0.1526 | 37.8 ± 3.8 | 31 ± 3.1 | 26.1 ± 2.6 | 22 ± 2.2 | 18.8 ± 1.9 | 16.2 ± 1.6
x1 = 0.6961, x2 = 0.1474 | 41.2 ± 4.1 | 33.5 ± 3.4 | 28.2 ± 2.8 | 23.8 ± 2.4 | 20.3 ± 2.1 | 17.5 ± 1.8

[Cl-].[Li+] + CCCCCC[n+]1ccn(C)c1.N#C[S-] + CN1CCCC1=O
298.15 K, 101 kPa
Details | viscosity [mPa·s]
x2 = 0, x1 = 0.04156 | 2.626 ± 0.035
x2 = 0, x1 = 0.07132 | 3.558 ± 0.046
x2 = 0, x1 = 0.1038 | 4.959 ± 0.064

COC[n+]1ccn(C)c1.O=S(=O)([N-]S(=O)(=O)C(F)(F)F)C(F)(F)F + O
Details | viscosity [mPa·s]
283 K, 101 kPa, x1 = 0.8283 | 80.4 ± 1.9

CC[N+](C)(CC)CCOC.O=S(=O)([N-]S(=O)(=O)C(F)(F)F)C(F)(F)F + CCCCn1cc[n+](C)c1C.O=S(=O)([N-]S(=O)(=O)C(F)(F)F)C(F)(F)F
100 kPa
Details | electrical conductivity [S/m]
293.15 K, x1 = 0.2 | 0.192 ± 0.012
293.15 K, x1 = 0.5 | 0.202 ± 0.012
298.15 K, x1 = 0.2 | 0.256 ± 0.015
313.15 K, x1 = 0.5 | 0.517 ± 0.031
313.15 K, x1 = 0.7 | 0.527 ± 0.032
318.15 K, x1 = 0.2 | 0.594 ± 0.036
323.15 K, x1 = 0.7 | 0.755 ± 0.045
328.15 K, x1 = 0.1 | 0.82 ± 0.049
328.15 K, x1 = 0.3 | 0.845 ± 0.051
328.15 K, x1 = 0.4 | 0.847 ± 0.051
333.15 K, x1 = 0.6 | 0.999 ± 0.06
343.15 K, x1 = 0.1 | 1.24 ± 0.074
343.15 K, x1 = 0.2 | 1.24 ± 0.074

O=C(O)CO + CC[N+](CC)(CC)CC.[Cl-]
101 kPa, x1 = 0.6667
Details | viscosity [mPa·s]
303.15 K | 268 ± 12
323.15 K | 87 ± 10
353.15 K | 27 ± 10

CCCCCCCCn1cc[n+](C)c1.O=[N+]([O-])[O-] + CCCCCCCCn1cc[n+](C)c1.[Cl-]
Details | viscosity [mPa·s]
293 K, 101 kPa, x2 = 0.3615 | 8500 ± 2500

Reference: the CheMixHub ionic liquid set
